US20070010574A1, “Use of a trpm8-activating substance for the treatment of tumours” (priority 2002, published 2007)

How the values were obtained:
HEK293 TRPM8 cells = assay: tumor growth in hairless mice; type: in vivo; settings: male hairless mice, HEK293 TRPM8 cells subcutaneous or xenotransplanted in the prostate; 20 mg/kg daily intraperitoneal in DMSO, three weeks; vs untreated control animals
Procedure: Human TRPM8 cDNA was subcloned in the expression vector pcDNA3.1 and subsequently stably transfected in HEK293 cells. […] To study the effect of menthol or icilin on tumor growth in vivo 2 million HEK293 TRPM8 cells were subcutaneously injected or xenotransplanted in the prostate in male hairless mice. The test groups in each case consisted of 10 animals. The control groups were untreated or treated only with DMSO. The animals were treated by daily intraperitoneal administration of 20 mg/kg body weight icilin or menthol, dissolved in DMSO, over a time interval of three weeks. The growth of the subcutaneously injected cells was measured twice weekly over the entire test duration. Immediately after completion of the trials the “xenotransplants” were resected, weighed and preserved.

[1] = test system: HEK293 cells transfected with TRPM8; assay: soft agar assay, colony formation rate; type: cell-based; settings: TRPM8 transfected HEK293 cells vs wild type and empty vector cells; menthol 10, 100, and 100 μM in medium, substituted every fifth day; after three weeks
Procedure: HEK293 cells were not transfected, transfected with TRPM8 or transfected with an empty vector. The cells were used in a soft agar assay (see reference Shappel et al., Cancer Research 61:497-503 (2001)). The cells highly individually plated out and immobilized in agar are caused to grow three-dimensionally and independently of the substrate in this way. The colony formation rate permits conclusions regarding the tumorigenicity of the cells to be drawn. 1000 cells were plated out in the 6-hole plate in 2 ml of medium containing soft agar and coated with 1 ml of medium (DMEM with 10% FCS, 2mM glutamine) after the agar congealed. Menthol dissolved in ethanol was added to the medium in end concentrations of 10, 100, and 100 μM and substituted every fifth day. The solvent alone was added as a control. After three weeks the number of colonies formed was determined under the microscope.

O=C1NC(c2cccc([N+](=O)[O-])c2)=CCN1c1ccccc1O [icilin]
tumor growth (HEK293 TRPM8 cells): distinctly less tumor growth

CC1CCC(C(C)C)C(O)C1 (stereo not drawn) [menthol]
tumor growth (HEK293 TRPM8 cells): distinctly less tumor growth | number of colonies formed (colony formation rate) [1]: distincly less colony formation
